Assays:
Format in all cases: cell-based
[1] = test system: MCT1 expressing WiDr cell line; assay: Mitochondrial stress test (Seahorse XFe96); details: vs DMSO control
Procedure: (§1) The metabolic profile of compound 1 was evaluated via mitochondrial stress test (MST) and glycolytic stress test (GST) on MCT4 expressing MDA-MB-231 and MCT1 expressing WiDr cell lines using Seahorse XFe96® analyzer (FIGS. 1A and 1B). 20,000 cells/well were seeded in 96-well microplates. MST was performed according to the manufacturer's protocol. The mitochondrial parameters: maximal respiration, ATP production, proton leak and spare respiratory capacity were calculated using wave software. DMSO was used as the negative control. A concentration study was performed in MDA-MB-231 cell line using compound 1 at 100, 50 and 30 μM concentrations. […] GST was also performed according to the manufacturer's protocol. The glycolytic parameters: glycolysis, glycolytic capacity, and glycolytic reserve were calculated using wave software, with DMSO as a negative control. In this case also, a concentration study was carried out at 100, 50 and 30 μM in MDA-MB-231 cell line.

[2] = test system: MCT4 expressing MDA-MB-231 cell line; assay: Mitochondrial stress test (Seahorse XFe96); details: 100, 50 and 30 μM, vs DMSO control
Procedure: as §1

[3] = test system: MCT4 expressing MDA-MB-231 cell line; assay: Glycolysis stress test (Seahorse XFe96); details: 100, 50 and 30 μM, vs DMSO control
Procedure: as §1

[4] = test system: 4T1 breast cancer cell line; assay: Inhibition of pyruvate-driven respiration in permeabilized cells (Seahorse XFe96); details: varying concentrations

SMILES | ATP production [1] | maximal respiration [1] | spare respiratory capacity [1] | ATP production [2] | maximal respiration [2] | spare respiratory capacity [2] | glycolytic capacity [3] | glycolytic reserve [3] | oxygen consumption rate (OCR) after compound injection ([4]; intact 4T1 cells, before rPFO) | inhibition of pyruvate-driven respiration ([4]; rPFO-permeabilized 4T1 cells, FCCP-stimulated pyruvate/malate/DCA)
N#C/C(=C\c1ccc(N(c2ccc(F)cc2)c2ccc(F)cc2)cc1)C(=O)O [Compound 1, (E)-3-(4-(bis(4-fluorophenyl)amino)phenyl)-2-cyanoacrylic Acid] | significantly decreased | significantly decreased | significantly decreased | significantly decreased | significantly decreased | significantly decreased | significantly decreased | significantly decreased |  | 
COc1cc(N(c2ccc(F)cc2)c2ccc(F)cc2)ccc1/C=C(\C#N)C(=O)O [Compound 2, (E)-3-(4-(bis(4-fluorophenyl)amino)-2-methoxyphenyl)-2-cyanoacrylic Acid] |  |  |  |  |  |  |  |  | Acute decreases in OCR were observed | inhibited pyruvate-driven respiration in permeabilized cells in a dose dependent fashion
